Test results taken from BindingDB's records for doi:10.1021/jm00157a018 (1987).
Residues, ends and D or L forms follow the SMILES beside them. *: point of attachment. X2 = O=C(N/N=C1/CC[C@@]2(O)[C@H]3Cc4ccc(O)c5c4[C@@]2(CCN3CC2CC2)[C@H]1O5)*; X1 = CN1CC[C@]23c4c5ccc(O)c4O[C@H]2/C(=N\NC(=O)*)CC[C@@]3(O)[C@H]1C5

Molecular target: Mu-type opioid receptor (Cavia porcellus, UniProt P97266)
Assay: ChEBML_145291

Chain of Mu-type opioid receptor (P97266 whole entry): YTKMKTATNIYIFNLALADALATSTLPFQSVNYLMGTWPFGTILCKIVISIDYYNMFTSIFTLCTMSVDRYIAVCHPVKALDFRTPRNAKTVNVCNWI

Compound | Ki
CN1CCC23c4c5ccc(O)c4O[C@H]2C(=NNC(N)=O)CC[C@@]3(O)C1C5 (stereo partly drawn) | 15 nM

Molecular target: not listed separately
Assay: Binding affinity against Opioid receptor delta 1 of guinea pig brain membranes using 1 nM of [3H]DADLE as radioligand

Compound | Ki
CC[C@H](C)[C@H](NC(=O)[C@H](CCCN=C(N)N)NC(=O)[C@H](CCCN=C(N)N)NC(=O)[C@H](CC(C)C)NC(=O)[C@H](Cc1ccccc1)NC(=O)N/N=C1/CC[C@@]2(O)[C@H]3Cc4ccc(O)c5c4[C@@]2(CCN3CC2CC2)[C@H]1O5)C(=O)OC (X2-FLRRI-OMe) | 5.7 nM
CC(C)CC(NC(=O)C(Cc1ccccc1)NC(=O)NN=C1CC[C@@]2(O)C3Cc4ccc(O)c5c4C2(CCN3C)[C@H]1O5)C(=O)O (stereo partly drawn) | 6.5 nM
CN1CCC23c4c5ccc(O)c4O[C@H]2C(=NNC(N)=O)CC[C@@]3(O)C1C5 (stereo partly drawn) | 69 nM
CC[C@H](C)[C@H](NC(=O)[C@H](CCCNC(=N)N)NC(=O)[C@H](CCCNC(=N)N)NC(=O)[C@H](CC(C)C)NC(=O)[C@H](Cc1ccccc1)NC(=O)CNC(=O)CNC(=O)[C@@H](N)Cc1ccc(O)cc1)C(=O)OC | 50 nM
NC(=O)NN=C1CC[C@@]2(O)C3Cc4ccc(O)c5c4C2(CCN3CC2CC2)[C@H]1O5 (stereo partly drawn) | 3.7 nM
CC(C)CC(NC(=O)C(Cc1ccccc1)NC(=O)NN=C1CC[C@@]2(O)C3Cc4ccc(O)c5c4C2(CCN3CC2CC2)[C@H]1O5)C(=O)O (stereo partly drawn) | 3.1 nM
CC[C@H](C)[C@H](NC(=O)[C@H](CCCN=C(N)N)NC(=O)[C@H](CCCN=C(N)N)NC(=O)[C@H](CC(C)C)NC(=O)[C@H](Cc1ccccc1)NC(=O)N/N=C1/CC[C@@]2(O)[C@H]3Cc4ccc(O)c5c4[C@@]2(CCN3C)[C@H]1O5)C(=O)OC (X1-FLRRI-OMe) | 24 nM
